Data set [1] is described as follows: Solubility (physico-chemical properties).
For data set [2], the system named is Candida albicans FP633. Description: Antimicrobial activity, serial broth dilution method (96-well microtiter plate). It counts as cell-based. Particulars: MEM, 1×10^5 cfu/ml, 37° C. for 24 hours, microscopic observation. Here is the method:
(§1) Test (Antimicrobial activity):
(§2) Test Compound The object compound of Example 1
(§3) Antimicrobial activity of the object compound of Example 1 was determined by a serial broth dilution method using 96-well microtiter plate in 100 μl of MEM (Eagle's minimum essential medium) for Candida albicans and in 100 μl of yeast nitrogen base dextrose medium for both Asperaillus fumigatus and Cryptococcus neoformans. The inoculum was adjusted to 1×10^5 colony forming units/ml. Candida albicans and Asperaillus fumigatus were cultured at 37° C. for 24 hours and Cryptococcus neoformans was cultured at 37° C. for 48 hours in 5% CO2 incubator. After incubation, the growth inhibition of microorganisms in each well was determined by microscopic observation. The results were shown as MEC (minimum effective concentration: μg/ml) value (Table 2).
In general terms: Dilution methods test growth across graded concentrations, often in twofold steps.

For data set [3], the system named is Aspergillus fumigatus FP1305. Described as above. Particulars: yeast nitrogen base dextrose medium, 1×10^5 cfu/ml, 37° C. for 24 hours, microscopic observation. It counts as cell-based. The method, then: as §1, §2, §3

On to `CCCCCCCCCCCCCCCC(=O)NC1CC(O)C(O)NC(=O)C2C(O)CCN2C(=O)C(C(O)CC(N)=O)NC(=O)C(C(O)C(O)c2ccc(O)c(OS(=O)(=O)[O-])c2)NC(=O)C2CC(O)CN2C(=O)C(C(C)O)NC1=O.[Na+]` (stereo not drawn) [Example 1], for which the melting point (commonly the temperature of the solid-liquid transition) is 165 to 170 °C (dec.). Moreover, the Solubility entry in data set [1] (acetone) is given as “slightly soluble”. In addition, the Solubility result in data set [1] (chloroform) is “insoluble”. Further, the Solubility result in data set [1] (ethyl acetate) is recorded as “slightly soluble”. In data set [1] (methanol), the Solubility result is on record as “soluble”. Moreover, the Solubility entry in data set [1] (water) is “soluble”. In addition, the “MEC (minimum effective concentration)” value in data set [2] is 0.04 µg/mL. Besides, in data set [3], the “MEC (minimum effective concentration)” value stood at 0.08 µg/mL.

With `CC(O)C1NC(=O)C(N)CC(O)C(O)NC(=O)C2C(O)CCN2C(=O)C(C(O)CC(N)=O)NC(=O)C(C(O)C(O)c2ccc(O)c(OS(=O)(=O)O)c2)NC(=O)C2CC(O)CN2C1=O` (stereo not drawn) [Example 2], the melting point fell in the range of 150 to 155 °C.

Values taken from patent US6399567B1, “Cyclic hexapeptides having antibiotic activity” (Fujisawa Pharmaceutical Co., Ltd., priority 1996, dated 2002).
